The source of these data is patent publication US20260028365A1 (BIOGEN MA INC., priority 2022, published 2026).

Sequence of Tyk2 (P29597 whole entry): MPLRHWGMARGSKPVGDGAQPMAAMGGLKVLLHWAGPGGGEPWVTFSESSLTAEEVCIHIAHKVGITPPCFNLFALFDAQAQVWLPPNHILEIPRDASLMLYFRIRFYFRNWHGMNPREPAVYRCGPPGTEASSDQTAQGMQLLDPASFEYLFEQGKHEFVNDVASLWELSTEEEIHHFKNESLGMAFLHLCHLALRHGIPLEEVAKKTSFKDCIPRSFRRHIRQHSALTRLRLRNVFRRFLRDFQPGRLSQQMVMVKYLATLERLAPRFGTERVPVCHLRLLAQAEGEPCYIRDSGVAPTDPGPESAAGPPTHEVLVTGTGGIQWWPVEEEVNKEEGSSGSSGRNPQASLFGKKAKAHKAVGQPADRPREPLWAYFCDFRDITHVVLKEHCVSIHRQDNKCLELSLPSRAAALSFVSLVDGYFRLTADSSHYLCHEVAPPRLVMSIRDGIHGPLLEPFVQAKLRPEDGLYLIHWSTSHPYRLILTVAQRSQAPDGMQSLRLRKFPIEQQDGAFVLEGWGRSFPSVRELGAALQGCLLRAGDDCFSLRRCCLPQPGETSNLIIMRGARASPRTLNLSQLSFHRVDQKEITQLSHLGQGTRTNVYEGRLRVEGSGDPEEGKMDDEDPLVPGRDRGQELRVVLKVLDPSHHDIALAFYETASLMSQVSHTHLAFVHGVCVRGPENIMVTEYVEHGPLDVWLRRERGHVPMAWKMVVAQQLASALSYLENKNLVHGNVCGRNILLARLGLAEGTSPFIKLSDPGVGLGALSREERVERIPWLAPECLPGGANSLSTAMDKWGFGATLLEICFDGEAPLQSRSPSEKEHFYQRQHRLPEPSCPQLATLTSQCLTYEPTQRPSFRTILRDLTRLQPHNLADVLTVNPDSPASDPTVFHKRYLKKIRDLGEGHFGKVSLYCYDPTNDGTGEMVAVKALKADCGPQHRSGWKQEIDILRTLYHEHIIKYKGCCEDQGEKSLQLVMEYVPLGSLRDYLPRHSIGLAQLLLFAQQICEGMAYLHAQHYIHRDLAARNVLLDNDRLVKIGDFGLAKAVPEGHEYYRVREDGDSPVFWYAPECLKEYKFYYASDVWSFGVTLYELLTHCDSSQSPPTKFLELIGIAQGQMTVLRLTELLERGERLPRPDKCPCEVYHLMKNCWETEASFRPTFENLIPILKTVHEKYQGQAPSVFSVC

One test concerns the target Tyk2 (Homo sapiens (Human), UniProt P29597). The test is described as follows: pSTAT4 Cell Assay (MSD, NK92 cells). The format is cell-based.
Conditions: not given
How it is done: The inhibitory potency of compounds of the disclosure against the Tyk2 kinase activity on STAT4 was evaluated using an MSD-platform plate-based assay format. NK92 cells natively expressing STAT4 and Tyk2 were serum-starved to reduce background phosphorylation levels, then cells were treated compounds for 1 hr with a 10-point four-fold dilution series starting at 10 μM. Cells were then stimulated with 30 ng/mL […] for 15 minutes. […] The data were normalized and the percent activity versus log concentration of compound were fitted with a 4-parameter logistic model to generate to generate IC50 curves.
As for `CCc1cc(Nc2cc(NC(C)=O)ncc2-c2ncc(CN3CCCC3)cc2F)nc(C(C)(F)F)n1` [Example 904, N-(4′-((2-(1,1-difluoroethyl)-6-ethylpyrimidin-4-yl)amino)-3-fluoro-5-(pyrrolidin-1-ylmethyl)-[2,3′-bipyridin]-6′-yl)acetamide], the IC50 is at most 10 nM.
Same read-out and setting: for `CCc1cc(Nc2cc(NC(C)=O)ncc2-c2ccc(F)c(CN3C[C@H]4C[C@@H](C3)O4)n2)nc(C(C)(F)F)n1` [Example 915, N-(6-(((1R,5S)-6-oxa-3-azabicyclo[3.1.1]heptan-3-yl)methyl)-4′-((2-(1,1-difluoroethyl)-6-ethylpyrimidin-4-yl)amino)-5-fluoro-[2,3′-bipyridin]-6′-yl)acetamide] the value was at most 10 nM.

The same test, now with this note: MSD.
In turn, `COCCOc1cnc(NC(C)=O)cc1Nc1cccc(C(F)CF)n1` (centres unmarked) [Example 73, N-(4-((6-(1,2-difluoroethyl)pyridin-2-yl)amino)-5-(2-methoxyethoxy)pyridin-2-yl)acetamide] displayed an IC50 of 10 to 100 nM.
`CC(=O)Nc1cc(Nc2cc(C)nc(C(C)(F)F)n2)c(-c2ccc(C(F)F)nn2)cn1` [Example 546, N-(4-((2-(1,1-difluoroethyl)-6-methylpyrimidin-4-yl)amino)-5-(6-(difluoromethyl)pyridazin-3-yl)pyridin-2-yl)acetamide] showed an IC50 of at most 10 nM.
As for `CC(=O)Nc1cc(Nc2cc(C)nc(C(C)(F)F)n2)c(-c2ccc([C@@H]3COCCN3C)cn2)cn1` (single isomer, unassigned) [Example 646, (R)-N-(4′-((2-(1,1-difluoroethyl)-6-methylpyrimidin-4-yl)amino)-5-(4-methylmorpholin-3-yl)-[2,3′-bipyridin]-6′-yl)acetamide or (S)-N-(4′-((2-(1,1-difluoroethyl)-6-methylpyrimidin-4-yl)amino)-5-(4-methylmorpholin-3-yl)-[2,3′-bipyridin]-6′-yl)acetamide], the IC50 was at most 10 nM.
`COc1ccc(Oc2cnc(NC(C)=O)cc2Nc2cc(C)nc(C(C)(F)F)n2)nn1` [Example 358, N-(4-((2-(1,1-difluoroethyl)-6-methylpyrimidin-4-yl)amino)-5-((6-methoxypyridazin-3-yl)oxy)pyridin-2-yl)acetamide] returned an IC50 of at least 1000 nM.
On the same count and under the same terms, next, `COCCc1cncc(-c2cnc(NC(C)=O)cc2Nc2cc(C)nc(C(C)(F)F)n2)n1` [Example 664, N-(4-((2-(1,1-difluoroethyl)-6-methylpyrimidin-4-yl)amino)-5-(6-(2-methoxyethyl)pyrazin-2-yl)pyridin-2-yl)acetamide]: 10 to 100 nM; `CC(=O)Nc1cc(Nc2cc(C)nc(C(C)(F)F)n2)c(C2=NC3C(=O)OCC3C=N2)cn1` (centres unmarked) [Example 682, N-(4-((2-(1,1-difluoroethyl)-6-methylpyrimidin-4-yl)amino)-5-(7-oxO4a,5,7,7a-tetrahydrofuro[3,4-d]pyrimidin-2-yl)pyridin-2-yl)acetamide]: at most 10 nM; `CC(=O)Nc1cc(Nc2cc(C)nc(C34COC(C3)C4)n2)c(-c2ccc(N3CCOCC3)cn2)cn1` [Example 574, N-(4′-((2-(2-oxabicyclo[2.1.1]hexan-4-yl)-6-methylpyrimidin-4-yl)amino)-5-morpholinO[2,3′-bipyridin]-6′-yl)acetamide]: at most 10 nM.
`CC(=O)Nc1cc(Nc2cc(C)nc(C(C)(F)F)n2)c(-c2cc3n(n2)CC(C)N(C)C3)cn1` (centres unmarked) [Example 548, N-(4-((2-(1,1-difluoroethyl)-6-methylpyrimidin-4-yl)amino)-5-(5,6-dimethyl-4,5,6,7-tetrahydropyrazolo[1,5-a]pyrazin-2-yl)pyridin-2-yl)acetamide] gave an IC50 of at most 10 nM.
On the same count and under the same terms, next, `CC(=O)Nc1cc(Nc2cc(C)nc(C(C)(F)F)n2)c(-c2ncc3c(n2)COC3)cn1` [Example 678, N-(4-((2-(1,1-difluoroethyl)-6-methylpyrimidin-4-yl)amino)-5-(5,7-dihydrofuro[3,4-d]pyrimidin-2-yl)pyridin-2-yl)acetamide]: 10 to 100 nM.
